Literature values, collected in US12144796B2, “Formulations for treating cluster symptoms associated with autism spectrum disorder” (Ilera Therapeutics LLC, priority 2019, dated 2024).

solubility in water: insoluble in water
SMILES: CC12CCC(CC1)C(C)(C)O2 [Eucalyptol, 1,3,3-trimethyl-2-oxabicyclo[2.2.2]octane]
